Measurements: patent US20110294736A1, “COMPOUNDS AND METHODS FOR THE TREATMENT OF AUTOIMMUNE AND INFLAMMATORY DISEASE” (THE PROVOST, FELLOWS AND SCHOLARS OF THE HOLY AND UNDIVIDED …, priority 2008, published 2011)

Tested on: BMDC
Experiment: IL-12p40, IL-23, IL-12p70 and IL-10 ELISA in BMDC with p38 or ERK inhibitor, Tri-DAP and LPS or CpG
Assay type: cell-based, murine
Settings: ERK inhibitor 5 μM 30 minutes before Tri-DAP 100 μg/ml
Description: BMDC (1×10^6) were pretreated with the p38 inhibitor, SB203580 (5 μM—FIGS. 10-11), or the ERK inhibitor UO126 (5 μM—FIGS. 12-13) for 30 minutes prior to stimulation with Tri-DAP (100 μg/ml) or medium alone. After 2 hours the cells were then stimulated with LPS (100 ng/ml—FIGS. 10 and 12), with the TLR agonist CpG (5 μg/ml—FIGS. 11 and 13) or with medium alone. Supernatants were collected after 24 hours and IL-12p40, IL-23, IL-12p70 and IL-10 concentrations were quantified by ELISA.

## N#CC(=C(/N)Sc1ccccc1N)/C(C#N)=C(\N)Sc1ccccc1N [U0126, reference compound]
LPS 100 ng/ml
  enhancement of LPS induced IL-12p70 by Tri-DAP: only marginally affected
  enhancement of LPS induced IL-23 production by Tri-DAP: suppressed
LPS 100 ng/ml or CpG 5 μg/ml
  IL-10 production by Tri-DAP with LPS or with CpG: suppressed
